Drawing on PubChem BioAssay (NCI), this text covers TGI for five compounds.

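Five concentrations, 48 hours, 96-well plates. Definition used: TGI = concentration required for complete inhibition of growth.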 A value given as a limit tells only on which side of the number the result lay.

Holding throughout (experiment): NCI tumour cell line growth inhibition, 48 h
For test [1], the system named is M19-MEL melanoma.
Test [2] deals with DMS 273 small cell lung.
Test [3] concerns XF 498 CNS.
For test [4], the system named is HOP-18 NSCLC.
Test [5] deals with DLD-1 colon.
The test system of test [6] is LXFL 529 NSCLC.
In test [7] the test system is SN12K1 renal.
Test [8] relates to P388 leukemia.
Test [9] has as its system P388/ADR leukemia.

`CN(C)CCCNC(=O)N/N=C/c1ccccc1`: the TGI in test [1], in test [2], in test [3], in test [4] and in test [5] was greater than 100 µM throughout.

Turning to `CC[C@]12C=CCN3CCC4(c5cc([C@@]6(C(=O)OC)CC7CN(CCc8c6[nH]c6ccccc86)CC6CCCCC67)c(OC)cc5N(C)C4[C@](O)(C(=O)OC)C1OC(C)=O)[C@@H]32` (some centres not stated), the TGI in test [1] came out at 17.6 µM; in test [3], 9.12 µM; in test [6], 12.7 µM; in [5], 13.2 µM.

On to `COc1cc(N=Nc2ccc(OC)c(S(=O)(=O)O)c2)c(C)cc1N=Nc1ccc(/C=C/c2ccc(N=[N+]([O-])c3ccc(/C=C/c4ccc(N=Nc5cc(C)c(N=Nc6ccc(OC)c(S(=O)(=O)O)c6)cc5OC)cc4S(=O)(=O)O)c(S(=O)(=O)O)c3)cc2S(=O)(=O)O)c(S(=O)(=O)O)c1`, for which the TGI in test [7], in test [1], in test [2], in test [3], in test [4] and in test [8] was greater than 100 µM throughout. Further, the TGI in test [5] is greater than 100 µM.

Consider `CCCn1cc2c3c(cccc31)C1C=C(C)CN(C)C1C2` (configuration not stated), for which the TGI in test [7] worked out at 44.1 µM; in [2] it was 47.3 µM; in test [9], 43.2 µM; in [4], 50.5 µM; in test [8] it was 28.5 µM; in test [5] it was 54.3 µM.

For `c1cncc(CSc2nc3ccccc3nc2-c2cccs2)c1`, the TGI in test [1], in test [2], in [3], in [4] and in test [5] was greater than 100 µM throughout.
